Data on 1 substance can be found in US12503426B2, “Synthetic derivatives of oleoyl-lysophosphatidylinositol (oleoyl-LPI) and uses thereof” (LIPOVEXA SRL, priority 2017, dated 2025).

In one test the test system is Glutag cells. Kind of test: GLP-1 secretion by Glutag cells. Type of test: cell-based, murine. The settings on record: 2 hours. The method in brief: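 Murine GLUTag and human NCI-H716 L-cells were incubated 2 h in FBS-free DMEM with LPI species, OEA or LPC, with optional 1 h pretreatment with PD98059 (50 μM) or H89 (10 μM). Total medium GLP-1 was measured by ELISA and normalised to basal control secretion.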

The test system of the next test is CREB. The experiment in a line: CREB phosphorylation by Western blot. Format: cell-based. Particulars: H89 10 μM pre-treatment or oleoyl-LPI in control cells. The method, then:
(§1) When cell cultures reached 80-90%, media were removed and cells were washed twice with 1×PBS. The cells were lysed in 150 μl (for one well of a 6 well plate) of Triton X-100 lysis buffer, containing phosphatase inhibitor cocktail (1:1000) (Sigma Aldrich, UK) and protease inhibitor (1:1000, Sigma Aldrich, UK). Cells were detached with scrapers and lysate were collected and centrifuged at 10,000 rpm, 4° C. for 5 minutes. The supernatant was then transferred to a 1.5 ml microcentrifuge tube and used for protein quantification. Cell lysates were stored at −20° C. for longer storage. All lysates were prepared on ice.
(§2) Non-specific antibody binding was prevented by incubating the nitrocellulose membrane in 5% milk in PBS-0.05% Tween-20 (v/v) for 30 minutes on a rotating plate. The membrane was then washed in PBS-0.05% Tween-20 (v/v) and then incubated with the primary antibody diluted in PBS-0.05% Tween-20 (v/v) on a rotating plate overnight at 4° C. After 24 hours, the membrane was washed 5× for 5 minutes with PBS-0.05% Tween-20 (v/v), and then incubated on a rotating plate with the appropriate secondary antibody for 1 hour at room temperature. […]
In general terms: In western blotting, separated proteins are transferred to a membrane and probed.

In the next test the test system is ERK. The experiment in a line: ERK phosphorylation by Western blot, Glutag cells. Format: cell-based, murine. Particulars: time course over 2 hours. The method, then: as §1, §2

As for “oleoyl-lysophosphatidylinositol [oleoyl-LPI]”, the GLP-1 secretion in the test with Glutag cells (Glutag cells, normalised as percentage of cells treated with vehicle (control)) amounted to 126±5%. In the test on Glutag cells (siGPR55 transfected Glutag cells, oleoyl-LPI 20 μM), the “effect of down-regulation of GPR55 on GLP-1 secretion” value is listed as “no effect on GLP-1 secretion”. Besides, the “GLP-1 secretion in siGPR119-transfected cells” value in the test with Glutag cells (siGPR119 transfected Glutag cells, oleoyl-LPI 20 μM) was “significantly reduced the GLP-1 secretion to the basal level”. Also, the “phosphorylation of CREB” value with CREB was “able to stimulate CREB phosphorylation”. In the test on ERK, the “p-ERK, time course” value was “increased p-ERK within 10 min and sustained a high level for 120 min”.
